According to ChEMBL document CHEMBL5465560, “Selectivity Literature for EUbOPEN Chemogenomic Library” (2024):

Columns and labels:
[1] = biological target: Cyclin-dependent kinase 18 (Homo sapiens) (UniProt Q07002); details: at 10 µM
[2] = biological target: Histone-lysine N-methyltransferase KMT5B (Homo sapiens) (UniProt Q4FZB7); assay: Selectivity interaction (Methyltransferase screen (radiometric assays, panel of 8 PRMTs, 21 protein lysine methyltransferases, 3 DNA methyltransferases, and one RNA methyltransferase)) EUB0000272b SUV420H1
Histone-lysine N-methyltransferase KMT5B (Homo sapiens), sequence (Q4FZB7 whole entry, looked up): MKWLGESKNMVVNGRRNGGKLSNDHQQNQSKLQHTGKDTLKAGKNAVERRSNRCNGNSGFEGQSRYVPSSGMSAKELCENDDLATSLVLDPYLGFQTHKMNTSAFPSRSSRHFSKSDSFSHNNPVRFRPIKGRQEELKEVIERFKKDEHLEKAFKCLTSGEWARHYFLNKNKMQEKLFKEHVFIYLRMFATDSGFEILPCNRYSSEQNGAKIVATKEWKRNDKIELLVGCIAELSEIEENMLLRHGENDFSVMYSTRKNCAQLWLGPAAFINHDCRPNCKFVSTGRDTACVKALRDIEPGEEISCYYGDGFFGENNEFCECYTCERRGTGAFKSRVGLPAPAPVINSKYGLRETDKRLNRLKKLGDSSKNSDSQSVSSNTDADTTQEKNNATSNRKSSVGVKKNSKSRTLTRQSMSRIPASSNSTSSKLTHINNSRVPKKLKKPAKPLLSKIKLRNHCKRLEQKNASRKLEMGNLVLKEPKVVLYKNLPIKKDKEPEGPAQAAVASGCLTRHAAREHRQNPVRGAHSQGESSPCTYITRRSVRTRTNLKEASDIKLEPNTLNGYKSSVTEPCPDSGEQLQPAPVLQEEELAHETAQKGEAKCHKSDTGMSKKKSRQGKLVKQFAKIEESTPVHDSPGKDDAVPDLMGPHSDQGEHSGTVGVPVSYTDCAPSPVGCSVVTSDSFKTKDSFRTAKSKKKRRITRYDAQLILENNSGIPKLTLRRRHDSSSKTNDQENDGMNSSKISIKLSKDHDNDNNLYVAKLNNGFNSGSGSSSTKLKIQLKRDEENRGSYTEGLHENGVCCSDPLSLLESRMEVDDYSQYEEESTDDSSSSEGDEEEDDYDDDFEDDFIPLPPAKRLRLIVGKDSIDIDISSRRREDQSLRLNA

[3] = biological target: Homeodomain-interacting protein kinase 3 (Homo sapiens, UniProt Q9H422); assay: Selectivity interaction (ProQinase) EUB0000171b HIPK3
Homeodomain-interacting protein kinase 3, sequence (Q9H422 whole entry, looked up): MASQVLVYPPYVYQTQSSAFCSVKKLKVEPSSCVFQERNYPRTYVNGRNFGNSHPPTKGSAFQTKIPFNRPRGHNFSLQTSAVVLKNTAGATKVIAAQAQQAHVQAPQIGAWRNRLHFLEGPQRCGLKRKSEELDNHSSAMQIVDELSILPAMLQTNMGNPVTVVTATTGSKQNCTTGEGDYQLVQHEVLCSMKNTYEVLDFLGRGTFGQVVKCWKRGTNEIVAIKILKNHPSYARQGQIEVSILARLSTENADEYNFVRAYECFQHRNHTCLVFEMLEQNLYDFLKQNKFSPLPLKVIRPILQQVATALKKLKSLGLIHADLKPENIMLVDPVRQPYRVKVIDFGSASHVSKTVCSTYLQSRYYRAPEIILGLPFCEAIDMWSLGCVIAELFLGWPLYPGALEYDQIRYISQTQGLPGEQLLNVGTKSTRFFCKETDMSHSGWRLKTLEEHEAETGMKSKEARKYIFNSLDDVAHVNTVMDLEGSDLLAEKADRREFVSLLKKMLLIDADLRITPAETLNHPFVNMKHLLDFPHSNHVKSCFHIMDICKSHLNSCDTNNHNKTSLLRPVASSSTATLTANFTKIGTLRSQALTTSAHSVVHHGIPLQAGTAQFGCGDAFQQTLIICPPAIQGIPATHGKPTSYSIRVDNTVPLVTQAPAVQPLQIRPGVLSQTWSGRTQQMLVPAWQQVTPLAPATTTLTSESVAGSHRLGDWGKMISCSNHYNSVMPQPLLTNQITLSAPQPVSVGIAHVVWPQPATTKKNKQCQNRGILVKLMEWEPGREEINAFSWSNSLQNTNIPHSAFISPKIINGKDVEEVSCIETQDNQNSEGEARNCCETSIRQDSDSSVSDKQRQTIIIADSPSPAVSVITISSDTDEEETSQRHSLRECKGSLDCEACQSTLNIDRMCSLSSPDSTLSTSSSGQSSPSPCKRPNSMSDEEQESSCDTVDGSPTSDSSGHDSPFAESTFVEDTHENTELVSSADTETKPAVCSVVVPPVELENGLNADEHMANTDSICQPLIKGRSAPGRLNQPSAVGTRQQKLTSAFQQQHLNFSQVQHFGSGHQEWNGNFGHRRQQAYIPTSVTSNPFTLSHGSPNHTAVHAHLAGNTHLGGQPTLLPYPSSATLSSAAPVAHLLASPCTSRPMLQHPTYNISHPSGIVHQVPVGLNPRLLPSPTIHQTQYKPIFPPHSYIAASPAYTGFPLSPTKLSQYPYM

[4] = biological target: Activin receptor type-2B (Homo sapiens) (UniProt Q13705); assay: Selectivity interaction (KinomeScan (DiscoverX)) EUB0000666a ACVR2B; details: at 10 µM
[5] = biological target: Bone morphogenetic protein receptor type-1B (Homo sapiens, UniProt O00238); assay: Selectivity interaction (KinomeScan (DiscoverX)) EUB0000666a BMPR1B; details: at 10 µM
[6] = biological target: T1, Serine/threonine-protein kinase NLK (Homo sapiens) (UniProt Q9UBE8); assay: Selectivity interaction (KinomeScan (DiscoverX)) EUB0001868a NLK; details: at 1 µM
T1 sequence (whole entry): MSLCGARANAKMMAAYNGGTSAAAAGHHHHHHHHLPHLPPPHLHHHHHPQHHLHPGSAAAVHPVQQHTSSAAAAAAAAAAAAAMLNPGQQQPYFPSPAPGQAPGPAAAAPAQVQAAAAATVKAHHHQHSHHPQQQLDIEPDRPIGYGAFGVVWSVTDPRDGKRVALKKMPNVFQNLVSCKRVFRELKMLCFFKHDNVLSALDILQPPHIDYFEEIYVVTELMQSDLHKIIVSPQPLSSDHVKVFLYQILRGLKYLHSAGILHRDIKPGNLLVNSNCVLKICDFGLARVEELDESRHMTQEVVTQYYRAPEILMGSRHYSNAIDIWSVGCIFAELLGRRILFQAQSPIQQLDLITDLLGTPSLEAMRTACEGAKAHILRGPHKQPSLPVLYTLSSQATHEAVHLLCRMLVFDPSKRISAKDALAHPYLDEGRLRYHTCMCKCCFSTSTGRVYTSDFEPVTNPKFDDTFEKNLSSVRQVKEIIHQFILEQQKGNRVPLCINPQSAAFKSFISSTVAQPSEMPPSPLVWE

[7] = biological target: Epidermal growth factor receptor (Homo sapiens, UniProt P00533); assay: Selectivity interaction (Enyzmatic assay) EUB0000601a EGFR
[8] = biological target: T2, Vascular endothelial growth factor receptor 3 (Homo sapiens, UniProt P35916); details: at 10 µM
T2 sequence (P35916 whole entry): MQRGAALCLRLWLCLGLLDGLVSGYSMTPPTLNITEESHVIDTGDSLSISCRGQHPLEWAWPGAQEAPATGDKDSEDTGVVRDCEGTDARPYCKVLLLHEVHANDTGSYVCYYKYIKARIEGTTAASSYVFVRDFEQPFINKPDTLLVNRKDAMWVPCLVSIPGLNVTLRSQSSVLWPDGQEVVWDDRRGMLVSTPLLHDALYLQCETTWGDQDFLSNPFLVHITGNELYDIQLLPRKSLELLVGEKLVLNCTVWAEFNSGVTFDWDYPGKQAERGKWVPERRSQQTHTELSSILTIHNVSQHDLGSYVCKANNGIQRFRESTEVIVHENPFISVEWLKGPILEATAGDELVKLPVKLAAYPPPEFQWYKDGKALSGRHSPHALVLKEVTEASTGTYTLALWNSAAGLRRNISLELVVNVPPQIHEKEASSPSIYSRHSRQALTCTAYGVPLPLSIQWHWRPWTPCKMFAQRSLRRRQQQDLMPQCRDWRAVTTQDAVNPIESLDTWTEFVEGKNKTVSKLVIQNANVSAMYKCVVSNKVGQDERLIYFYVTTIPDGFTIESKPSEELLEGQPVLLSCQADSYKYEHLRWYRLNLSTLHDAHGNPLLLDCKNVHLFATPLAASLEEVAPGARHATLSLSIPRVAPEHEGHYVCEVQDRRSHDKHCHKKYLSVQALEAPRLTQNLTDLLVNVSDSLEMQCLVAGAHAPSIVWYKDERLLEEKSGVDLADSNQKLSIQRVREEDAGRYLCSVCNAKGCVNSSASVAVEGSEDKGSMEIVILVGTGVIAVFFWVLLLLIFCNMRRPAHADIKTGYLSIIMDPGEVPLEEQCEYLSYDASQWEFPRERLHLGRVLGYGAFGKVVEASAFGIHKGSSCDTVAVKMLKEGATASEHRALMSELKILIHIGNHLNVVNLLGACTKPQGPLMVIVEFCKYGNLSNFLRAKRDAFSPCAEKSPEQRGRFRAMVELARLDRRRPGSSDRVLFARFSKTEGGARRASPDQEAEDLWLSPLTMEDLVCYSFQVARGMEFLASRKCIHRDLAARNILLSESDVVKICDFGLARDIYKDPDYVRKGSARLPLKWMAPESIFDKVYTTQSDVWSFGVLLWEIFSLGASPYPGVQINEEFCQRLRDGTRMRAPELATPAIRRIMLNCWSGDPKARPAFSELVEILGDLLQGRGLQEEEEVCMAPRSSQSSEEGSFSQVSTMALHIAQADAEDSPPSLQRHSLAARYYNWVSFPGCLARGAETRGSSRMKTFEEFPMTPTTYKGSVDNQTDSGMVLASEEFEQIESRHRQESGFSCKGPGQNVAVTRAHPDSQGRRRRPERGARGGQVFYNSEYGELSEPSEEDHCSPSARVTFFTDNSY

[9] = biological target: Serine/threonine-protein kinase PAK 1 (Homo sapiens) (UniProt Q13153); details: at 10 µM
[10] = biological target: Bromodomain-containing protein 3 (Homo sapiens) (UniProt Q15059); assay: Selectivity interaction (Bromodomain panel (DSF asssay)) EUB0000270b BRD3
[11] = biological target: Tyrosine-protein kinase ABL2 (Homo sapiens, UniProt P42684); assay: Selectivity interaction (ActivX KiNativ screen (kinase selectivity in THP-1 cell lysates)) EUB0000639a ABL2; format: subcellular; details: lysate, at 1 µM
[12] = biological target: T2, Vascular endothelial growth factor receptor 3; assay: Selectivity interaction (Kinase panel (Invitrogen)) EUB0000639a FLT4; details: at 200 nM
[13] = biological target: Serine/threonine-protein kinase Nek7 (Homo sapiens) (UniProt Q8TDX7); assay: Selectivity interaction (ActivX KiNativ screen (kinase selectivity in THP-1 cell lysates)) EUB0000639a NEK7; format: subcellular; details: lysate, at 0.01 µM
Serine/threonine-protein kinase Nek7 (Homo sapiens), sequence (Q8TDX7 whole entry, looked up): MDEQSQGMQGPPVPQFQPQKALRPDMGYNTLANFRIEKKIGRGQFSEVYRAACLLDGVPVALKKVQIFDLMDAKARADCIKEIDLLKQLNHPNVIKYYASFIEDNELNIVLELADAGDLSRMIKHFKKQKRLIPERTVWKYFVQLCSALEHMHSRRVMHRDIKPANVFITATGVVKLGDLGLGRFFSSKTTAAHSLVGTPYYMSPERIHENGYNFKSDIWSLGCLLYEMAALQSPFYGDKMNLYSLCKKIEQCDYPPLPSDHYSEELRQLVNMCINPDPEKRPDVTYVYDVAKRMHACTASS

[14] = biological target: Serine/threonine-protein kinase 16 (Homo sapiens, UniProt O75716); assay: Selectivity interaction (KinomeScan (DiscoverX)) EUB0000607a STK16; details: at 10 µM
Serine/threonine-protein kinase 16, sequence (O75716 whole entry): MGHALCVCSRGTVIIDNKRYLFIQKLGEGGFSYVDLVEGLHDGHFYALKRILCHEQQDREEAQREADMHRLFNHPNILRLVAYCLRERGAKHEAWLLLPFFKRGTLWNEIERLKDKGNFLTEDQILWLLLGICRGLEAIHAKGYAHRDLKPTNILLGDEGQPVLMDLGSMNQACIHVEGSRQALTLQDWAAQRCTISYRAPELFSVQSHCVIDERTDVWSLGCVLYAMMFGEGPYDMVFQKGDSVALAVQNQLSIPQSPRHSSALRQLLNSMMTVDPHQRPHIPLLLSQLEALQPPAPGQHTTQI

[15] = biological target: Receptor tyrosine-protein kinase erbB-3 (Homo sapiens) (UniProt P21860); assay: Selectivity interaction (KinomeScan (DiscoverX)) EUB0001049a ERBB3; details: at 1 µM
[16] = biological target: Phosphatidylinositol 4-phosphate 5-kinase type-1 gamma (Homo sapiens) (UniProt O60331); assay: Selectivity interaction (KinomeScan (DiscoverX)) EUB0001049a PIP5K1C; details: at 1 µM
[17] = biological target: Serine/threonine-protein kinase SIK1 (Homo sapiens) (UniProt P57059); assay: Selectivity interaction (KinomeScan (DiscoverX)) EUB0001049a SIK1; details: at 1 µM
[18] = biological target: Cyclin-dependent kinase 5 (Homo sapiens, UniProt Q00535); assay: Selectivity interaction (Kinase panel (enzymatic assay)) EUB0000595a CDK5
[19] = biological target: T3, Mitogen-activated protein kinase 13 (Homo sapiens) (UniProt O15264); assay: Selectivity interaction (Kinase panel (literature)) EUB0001199aCl MAPK13; details: at 1 µM
T3 sequence (whole entry): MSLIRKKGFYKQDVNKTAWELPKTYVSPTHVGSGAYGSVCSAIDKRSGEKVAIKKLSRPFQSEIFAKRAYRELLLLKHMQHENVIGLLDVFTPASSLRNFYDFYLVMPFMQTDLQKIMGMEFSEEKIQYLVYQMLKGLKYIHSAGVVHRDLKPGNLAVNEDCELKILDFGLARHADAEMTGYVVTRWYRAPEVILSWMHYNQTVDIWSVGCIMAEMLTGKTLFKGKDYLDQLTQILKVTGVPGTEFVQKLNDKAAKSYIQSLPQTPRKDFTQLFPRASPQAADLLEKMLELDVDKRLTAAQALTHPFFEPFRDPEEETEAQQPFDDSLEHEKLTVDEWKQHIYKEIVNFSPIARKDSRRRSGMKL

[20] = biological target: Calcium/calmodulin-dependent protein kinase type 1 (Homo sapiens) (UniProt Q14012); assay: Selectivity interaction (KinomeScan (DiscoverX)) EUB0000618a CAMK1; details: at 10 µM
Calcium/calmodulin-dependent protein kinase type 1 (Homo sapiens), sequence (Q14012 whole entry, looked up): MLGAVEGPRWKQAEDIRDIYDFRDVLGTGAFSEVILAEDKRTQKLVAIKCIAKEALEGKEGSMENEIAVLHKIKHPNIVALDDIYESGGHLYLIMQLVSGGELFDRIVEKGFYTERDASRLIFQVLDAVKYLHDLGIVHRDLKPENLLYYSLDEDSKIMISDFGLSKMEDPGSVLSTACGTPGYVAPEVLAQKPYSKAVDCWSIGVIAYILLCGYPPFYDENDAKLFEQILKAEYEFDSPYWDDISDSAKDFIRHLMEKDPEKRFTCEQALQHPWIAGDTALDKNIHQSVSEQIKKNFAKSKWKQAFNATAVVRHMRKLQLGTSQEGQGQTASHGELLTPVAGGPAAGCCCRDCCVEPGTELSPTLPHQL

Focal adhesion kinase 1 = Focal adhesion kinase 1 (Homo sapiens, UniProt Q05397); assay: Selectivity interaction (Ambit KINOMEscan and KiNATiv profiling in Jurkat cells) EUB0000090b PTK2; format: cell-based; details: at 1 µM
[21] = biological target: T4, Dual specificity mitogen-activated protein kinase kinase 6 (Homo sapiens) (UniProt P52564); assay: Selectivity interaction (Ambit KINOMEscan and KiNATiv profiling in Jurkat cells) EUB0000090b MAP2K6; format: cell-based; details: at 1 µM
T4 sequence (whole entry): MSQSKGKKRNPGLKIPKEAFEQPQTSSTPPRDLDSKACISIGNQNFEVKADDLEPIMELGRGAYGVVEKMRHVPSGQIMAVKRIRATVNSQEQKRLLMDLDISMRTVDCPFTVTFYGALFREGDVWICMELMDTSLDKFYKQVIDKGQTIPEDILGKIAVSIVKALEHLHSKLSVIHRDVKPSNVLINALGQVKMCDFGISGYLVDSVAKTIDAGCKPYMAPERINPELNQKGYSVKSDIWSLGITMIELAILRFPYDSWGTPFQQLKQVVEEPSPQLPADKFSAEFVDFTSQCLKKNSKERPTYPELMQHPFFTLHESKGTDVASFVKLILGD

[22] = biological target: Histone-lysine N-methyltransferase, H3 lysine-79 specific (Homo sapiens, UniProt Q8TEK3); details: at 1 µM

Cyclin-dependent kinase 18 (Homo sapiens), sequence (Q07002 whole entry): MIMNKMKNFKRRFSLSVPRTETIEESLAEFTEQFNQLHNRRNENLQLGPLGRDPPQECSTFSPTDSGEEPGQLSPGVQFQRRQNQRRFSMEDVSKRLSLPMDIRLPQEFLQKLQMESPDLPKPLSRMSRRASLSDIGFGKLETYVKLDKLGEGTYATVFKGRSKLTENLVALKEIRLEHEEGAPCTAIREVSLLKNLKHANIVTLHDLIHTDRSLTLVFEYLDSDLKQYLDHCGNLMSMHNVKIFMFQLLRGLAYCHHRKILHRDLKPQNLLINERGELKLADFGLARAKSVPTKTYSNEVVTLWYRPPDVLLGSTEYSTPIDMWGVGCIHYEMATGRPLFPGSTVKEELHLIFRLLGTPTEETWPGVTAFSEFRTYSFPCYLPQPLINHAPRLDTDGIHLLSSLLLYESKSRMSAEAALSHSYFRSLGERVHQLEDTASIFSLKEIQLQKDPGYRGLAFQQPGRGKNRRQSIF

CCN(CC)CCCCNc1ncc2cc(-c3cc(OC)cc(OC)c3)c(NC(=O)NC(C)(C)C)nc2n1
% of control [1]: 100%

Cc1cc(C)cc([C@H]2c3cc(C)ccc3NC(=O)CN2C(=O)c2ccc(Br)s2)c1
% of activity ([2]; at 1 µM): 103% | % of activity ([2]; at 10 µM): 103%

C=CC(=O)Nc1cccc(C(=O)Nc2ccc(Nc3cc(-c4[nH]c(SC)nc4C)ccn3)cc2)c1
% of control ([3]; at 1 µM): 93% | % of control ([3]; at 5 µM): 90%

O=C(NOC[C@H](O)CO)c1ccc(F)c(F)c1Nc1ccc(I)cc1F
% of control [4]: 66% | % of control [5]: 100%

Cc1cc(-c2ccnc(Nc3cnn(C)c3)n2)ccc1CNC(=O)N1CC(OC(C)C)C1
% of control [6]: 46%

CCc1cc(Nc2nccc(-c3c(-c4ccc(OC)c(C(=O)Nc5c(F)cccc5F)c4)nc4ccccn34)n2)c(OC)cc1N1CCC(N2CCN(S(C)(=O)=O)CC2)CC1
IC50 [7]: > 10 µM

Cc1cc([C@@H](C)Nc2ccccc2C(=O)O)c2nc(N3CCOCC3)cc(=O)n2c1 [AZD-6482]
% of control [8]: 95% | % of control [9]: 100%

Cc1cc(CN)cc(C)c1-c1ncn(C)c1-c1cncn1C
dTM [10]: -3.97 K

CC[C@@H]1[C@H](F)C(=O)N[C@@H]1COc1nccc2cc(C(N)=O)c(OC)cc12 [ZIMLOVISERTIB]
% of inhibition [11]: -13.2% | % of inhibition [12]: 0.591% | % of inhibition [13]: -2.2%

CNC(=O)Nc1ccc(-c2nc(N3CC4CCC(C3)O4)c3cnn(C4CCC5(CC4)OCCO5)c3n2)cc1
% of control [14]: 98%

COc1cc(Nc2nc(C)cc(-c3cnn4nc(OC)ccc34)n2)cc(C(F)(F)F)c1
% of control [15]: 100% | % of control [16]: 94% | % of control [17]: 93%

COCC(=O)NC/C=C/c1ccc2ncnc(Nc3ccc(Oc4ccc(C)nc4)c(C)c3)c2c1 [CP-724714]
IC50 [18]: > 10 µM

CN1Cc2nccc(-c3cn(C)nc3-c3ccc(F)cc3)c2C1=O
% of inhibition [19]: 10%

O[C@H]1CC[C@H](Nc2ncc3nc(Nc4c(F)cc(F)cc4F)n([C@H]4CCOC4)c3n2)CC1
% of control [20]: 100%

CN(C)C/C=C/C(=O)Nc1ccc(C(=O)N2CCCC(Nc3ncc(Cl)c(-c4c[nH]c5ccccc45)n3)C2)cc1 (stereo not given)
% of control (Focal adhesion kinase 1): 74% | % of control [21]: 78%

CNCCN1CCC(c2cc(CN(C)C(=O)c3cccc(Oc4ccccc4)c3)ccn2)CC1
% activity [22]: > 90%
